Test system: K86415-001-R-J1-PDC complex spheroids, viability
Experiment: Anticancer human tumor K86415-001-R-J1-PDC patient-derived lung adenocarcinoma cell line growth inhibition [RAS]
Conditions: for IC50: curve of first compound; for viability, T/C: stronger effect = lower value; active = viability on the fitted dose curve at most 10% of control; inactive = the rest
Method in brief: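 Multi-cell-type spheroids: tumor cells plus HUVEC endothelial cells and mesenchymal stem cells. RAS-pathway inhibitors were combined with targeted agents, each dosed in half-log steps down from clinical Cmax, or from 10 microM when Cmax was unknown.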
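Note: spheroids exposed to agents for seven days before readout.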

Nc1ccn(C2OC(CO)C(O)C2(F)F)c(=O)n1 (centres undefined) + C=CC(=O)N1CCN(c2nc(OCC3CCCN3C)nc3c(F)c(-c4nc(N)cc(C)c4C(F)(F)F)c(Cl)cc23)C(C)C1
< 3.16 nM: IC50 (second compound 0.00316 µM) | IC50 (second compound 0.01 µM) | IC50 (second compound 0.0316 µM) | IC50 (second compound 0.1 µM) | IC50 (second compound 0.316 µM) | IC50 (second compound 1 µM)
inactive: viability, T/C (second compound 0.00316 µM, first compound 0.00316 µM) 18.1% | viability, T/C (second compound 0.00316 µM, first compound 0.01 µM) 16.6% | viability, T/C (second compound 0.00316 µM, first compound 0.0316 µM) 14.9% | viability, T/C (second compound 0.00316 µM, first compound 0.1 µM) 14.7% | viability, T/C (second compound 0.00316 µM, first compound 0.316 µM) 17.8% | viability, T/C (second compound 0.00316 µM, first compound 1 µM) 17.2% | viability, T/C (second compound 0.01 µM, first compound 0.00316 µM) 16.1% | viability, T/C (second compound 0.01 µM, first compound 0.01 µM) 12.8% | viability, T/C (second compound 0.01 µM, first compound 0.0316 µM) 9.45% | viability, T/C (second compound 0.01 µM, first compound 0.1 µM) 11.5% | viability, T/C (second compound 0.01 µM, first compound 0.316 µM) 9.75% | viability, T/C (second compound 0.01 µM, first compound 1 µM) 11.1% | viability, T/C (second compound 0.0316 µM, first compound 0.00316 µM) 11% | viability, T/C (second compound 0.0316 µM, first compound 0.01 µM) 12.7% | viability, T/C (second compound 0.0316 µM, first compound 0.0316 µM) 10.5% | viability, T/C (second compound 0.0316 µM, first compound 0.1 µM) 9.28% | viability, T/C (second compound 0.0316 µM, first compound 0.316 µM) 11% | viability, T/C (second compound 0.0316 µM, first compound 1 µM) 10.4% | viability, T/C (second compound 0.1 µM, first compound 0.00316 µM) 9.91% | viability, T/C (second compound 0.1 µM, first compound 0.01 µM) 9.83% | viability, T/C (second compound 0.1 µM, first compound 0.0316 µM) 9.05% | viability, T/C (second compound 0.1 µM, first compound 0.1 µM) 9.1% | viability, T/C (second compound 0.1 µM, first compound 0.316 µM) 11.7% | viability, T/C (second compound 0.1 µM, first compound 1 µM) 11.4% | viability, T/C (second compound 0.316 µM, first compound 0.00316 µM) 11% | viability, T/C (second compound 0.316 µM, first compound 0.01 µM) 10.5% | viability, T/C (second compound 0.316 µM, first compound 0.0316 µM) 11% | viability, T/C (second compound 0.316 µM, first compound 0.1 µM) 8.77% | viability, T/C (second compound 0.316 µM, first compound 0.316 µM) 11.1% | viability, T/C (second compound 0.316 µM, first compound 1 µM) 8.63% | viability, T/C (second compound 1 µM, first compound 0.00316 µM) 10.2% | viability, T/C (second compound 1 µM, first compound 0.01 µM) 11.9% | viability, T/C (second compound 1 µM, first compound 0.0316 µM) 10.3% | viability, T/C (second compound 1 µM, first compound 0.1 µM) 11.7% | viability, T/C (second compound 1 µM, first compound 0.316 µM) 11.7% | viability, T/C (second compound 1 µM, first compound 1 µM) 8.61%

C=CC(=O)N1CCN(c2nc(OCC3CCCN3C)nc3c(F)c(-c4nc(N)cc(C)c4C(F)(F)F)c(Cl)cc23)C(C)C1 (centres undefined) + CCn1c(-c2cccnc2C(C)OC)c2c3cc(ccc31)N1CCOC(CC(NC(=O)C(C(C)C)N(C)C(=O)C3(F)CCN(C(=O)C#CC(C)(C)N(C)C)CC3)C(=O)N3CCCC(N3)C(=O)OCC(C)(C)C2)C1
inactive: viability, T/C (second compound 0.000949 µM, first compound 0.00316 µM) 13.8% | viability, T/C (second compound 0.000949 µM, first compound 0.01 µM) 12.1% | viability, T/C (second compound 0.000949 µM, first compound 0.0316 µM) 9.94% | viability, T/C (second compound 0.000949 µM, first compound 0.1 µM) 9.02% | viability, T/C (second compound 0.000949 µM, first compound 0.316 µM) 11.8% | viability, T/C (second compound 0.003 µM, first compound 0.00316 µM) 13.5% | viability, T/C (second compound 0.003 µM, first compound 0.01 µM) 12.9% | viability, T/C (second compound 0.003 µM, first compound 0.0316 µM) 12.2% | viability, T/C (second compound 0.003 µM, first compound 0.1 µM) 11.1% | viability, T/C (second compound 0.003 µM, first compound 0.316 µM) 12% | viability, T/C (second compound 0.003 µM, first compound 1 µM) 9.09% | viability, T/C (second compound 0.00949 µM, first compound 0.00316 µM) 13.7% | viability, T/C (second compound 0.00949 µM, first compound 0.01 µM) 10.7% | viability, T/C (second compound 0.00949 µM, first compound 0.0316 µM) 14.6% | viability, T/C (second compound 0.00949 µM, first compound 0.1 µM) 10.1% | viability, T/C (second compound 0.00949 µM, first compound 0.316 µM) 10.7% | viability, T/C (second compound 0.00949 µM, first compound 1 µM) 11.4% | viability, T/C (second compound 0.03 µM, first compound 0.00316 µM) 13% | viability, T/C (second compound 0.03 µM, first compound 0.01 µM) 13.4% | viability, T/C (second compound 0.03 µM, first compound 0.0316 µM) 11.1% | viability, T/C (second compound 0.03 µM, first compound 0.1 µM) 11.8% | viability, T/C (second compound 0.03 µM, first compound 0.316 µM) 11.7% | viability, T/C (second compound 0.03 µM, first compound 1 µM) 16.2% | viability, T/C (second compound 0.0949 µM, first compound 0.00316 µM) 11% | viability, T/C (second compound 0.0949 µM, first compound 0.01 µM) 10.7% | viability, T/C (second compound 0.0949 µM, first compound 0.0316 µM) 13.2% | viability, T/C (second compound 0.0949 µM, first compound 0.1 µM) 11.2% | viability, T/C (second compound 0.0949 µM, first compound 0.316 µM) 12.8% | viability, T/C (second compound 0.0949 µM, first compound 1 µM) 15.8% | viability, T/C (second compound 0.3 µM, first compound 0.00316 µM) 12% | viability, T/C (second compound 0.3 µM, first compound 0.01 µM) 12.6% | viability, T/C (second compound 0.3 µM, first compound 0.0316 µM) 14.4% | viability, T/C (second compound 0.3 µM, first compound 0.1 µM) 11.2% | viability, T/C (second compound 0.3 µM, first compound 0.316 µM) 14% | viability, T/C (second compound 0.3 µM, first compound 1 µM) 14.1%
active: viability, T/C (second compound 0.000949 µM, first compound 1 µM) 9.5%
< 3.16 nM: IC50 (second compound 0.000949 µM) | IC50 (second compound 0.003 µM) | IC50 (second compound 0.00949 µM) | IC50 (second compound 0.03 µM) | IC50 (second compound 0.0949 µM) | IC50 (second compound 0.3 µM)

— PubChem BioAssay AID2060893 (Molecular Pharmacology Branch, DTP, NCI, 2025)
